Reference: PubChem BioAssay AID179 (DTP/NCI, 2004)
pEC50, pIC50: −log10 of the molar value. Several values for one entry are separate records, joined by “and”; a condition that tells them apart may be missing. Equal entries are not always repeated. Activity calls are given as the source filed them.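 How the source made its calls: active means compounds giving half or more protection of infected cells from virus-caused growth loss, again on retest; inactive means the rest.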

Test system: CEM cells HIV-1 protection, formazan growth assay
Test: NCI AIDS Antiviral Assay
Conditions: for pIC50: measured here: growth of uninfected CEM cells
Outline: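 Soluble formazan readout of cell growth; CEM cells ± HIV-1; 5 drug concs. ≥50% protection → retest; ≥50% again = moderately active; reproducible 100% = confirmed active.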

Compound	pEC50	pIC50	outcome
NC1(C(=O)O)CCCCC1c1ccccc1 (stereo not drawn)	< 4.37	< 4.37	
O[C@]12CCCC[C@H]1CCC2			inactive
COc1ccc(-c2nnc(-c3ccncc3)o2)cc1	< 3.70	< 3.70	
COC(=O)CCCC1(CCCC(=O)OC)CCCCCCCCC(CCCC(=O)OC)(CCCC(=O)OC)C(=O)C1=O	< 3.70	4.45	
O=C1CC(C2(O)C(=O)Nc3ccc([N+](=O)[O-])cc32)c2ccccc21 (stereo not drawn)	< 4.26	< 4.26	
CCCc1cc(=O)oc2c3c(cc(OC)c12)O[C@H](C)C(C)C3=O (stereo partly drawn)	< 3.70	4.23	
COc1ccc(OC)c(CCc2ccccc2CC(=O)O)c1	< 3.08	3.30	
O=S(=O)(O)SCCCNCCCCCCNCCCSS(=O)(=O)O	< 3.70	3.89	
O=c1/c(=C/c2ccccc2[N+](=O)[O-])sc2nnc(-c3ccco3)n12	< 4.53	< 4.53	
COc1ccc(-n2c(=O)[nH]n(C(C)=O)c2=O)cc1	< 3.70	< 3.70	
COc1cc(CC2c3cc(OC)c(OC)cc3CCN2C)c(Oc2cc3c(cc2OC)-c2c(O)c(OC)cc4c2C(C3)N(C)CC4)cc1OC (stereo not drawn)			inactive
CC1c2[nH]c3ccccc3c2CCN1O (stereo not drawn)			inactive
O=C(CCCN1CC=C(n2c(=O)[nH]c3ccccc32)CC1)c1ccc(F)cc1	< 3.70	4.05	
Cc1cc(Cl)c(=O)n(-c2ccccc2)n1	< 3.79	< 3.79	
COC1=C(C(c2cc(OC)c(OC)c(OC)c2)c2cc3c(cc2OC)OCO3)C(=O)OC1 (stereo not drawn)	< 3.70	4.98	
Nc1ccc(-c2cc3ccccc3[nH]2)cc1	< 3.83	3.93	
CC(=O)OC1CCn2nnc(CO)c21 (stereo not drawn)			inactive
OCC(O)C1OC(c2ccco2)OC(CO)C1O (stereo not drawn)	< 3.70	< 3.70	
Cc1ccc(C2[C@H]3C(=O)N(c4ccc(Cc5ccc(N6C(=O)[C@@H]7ON(c8ccccc8)C(c8ccc(C)cc8)[C@@H]7C6=O)cc5)cc4)C(=O)[C@H]3ON2c2ccccc2)cc1 (stereo partly drawn)	< 5.17	< 5.17	
CCCCNC1CCC2(SCCS2)c2[nH]c3ccccc3c21 (stereo not drawn)	< 3.70	5.90	
COC(=O)c1c(C(=O)OC)c(C(=O)OC)c2c([nH]c3ccccc32)c1C(=O)OC			inactive
COc1ccc(C2Oc3cc(OC)ccc3C(=O)C2c2ccccc2)cc1 (stereo not drawn)	< 3.70	4.50	
C[C@H](c1ccccc1)N1C(=O)[C@@H](OCc2ccccc2)[C@H]1[C@H](COC(=O)COCc1ccccc1)OCc1ccccc1	< 3.70	< 3.70	

Compound	pEC50	pIC50	outcome
O=C1C(O)=C(O)C(=O)C(O)=C1O	< 3.70	< 3.70	
CC1(C)C(=O)N=C(N)N1C(=O)OCc1ccccc1	< 3.70	< 3.70	
CN(c1c(Cl)cccc1Cl)S(=O)(=O)c1ccccc1[N+](=O)[O-]	< 3.70	4.18	
COc1ccc(OCC(=O)O)c(C(=O)CCC(=O)O)c1			inactive
CC(=O)Nc1ccc(S(=O)(=O)Nc2cnc3ccccc3n2)cc1	< 3.28	< 3.28	
COc1ccc(-n2nc(C)cc(N)c2=O)cc1	< 2.97	< 2.97	
O=S(=O)(c1ccc(N=C=S)cc1)N1CCCCC1	< 3.70	4.01	
CC(Oc1ccc2c(-c3ccccc3)cc(=O)oc2c1)C(=O)O (stereo not drawn)			inactive
CSc1nncc2[nH]cnc12	< 3.70	< 3.70	
CC1=C(C(=O)Nc2c(C)cccc2C)C(c2ccccc2Cl)C(C(=O)Nc2c(C)cccc2C)=C(C)N1	< 3.45	3.49	
O=C1c2ccccc2C2(O)Nc3cc(O)ccc3C12O (stereo not drawn)	< 3.03	3.18	
COc1ccc(OC)c(C[P+](c2ccccc2)(c2ccccc2)c2ccccc2)c1	< 3.70	5.92	
N#Cc1nc(NC(=O)c2ccccc2)sc1N	< 3.70	4.82	
Nc1ccccc1SSc1ccccc1N	< 3.70	4.60 and 5.27	inactive
CC(=O)OC1O[C@@H](C(C)(C)O)CC[C@@H]1[C@H]1CC[C@@]2(C)C3=C(CC[C@]12C)[C@@]1(C)C[C@@H](OC(=O)CC(C)(O)CC(=O)O)[C@H](OC(C)=O)C(C)(C)C1CC3 (stereo partly drawn)	< 3.70	3.98	
Nc1ccc(C(=O)NN2C(=O)C(Cl)C2c2ccc(O)cc2)cc1 (stereo not drawn)	< 3.70	5.04	
CCCN(CCCc1ccccc1)CCc1ccc2[nH]c(=S)[nH]c2c1	< 3.70	4.45	
CCOC(=O)/C=C/c1ccc(OC)cc1	< 4.46	< 4.46	
C=CC/C=C/C/C=C/CCCCCCCc1cccc(O)c1C(=O)O	< 3.98	4.25	
COc1cc(C2C(Cl)C(=O)N2n2cnc3ccccc3c2=O)ccc1O (stereo not drawn)	< 3.17	4.52	
S=C(N/N=C(\c1ccccc1)c1ccccn1)NC1CCCCC1	< 3.70	5.62	
COC(=O)Cc1cc(O)c2c(c1O)C(=O)c1ccccc1C2=O			inactive
